According to patent publication US9597297B2, “Combination of pilocarpin and methimazol for treating Charcot-Marietooth disease and related disorders” (PHARNEXT, priority 2008, dated 2017):
Entries after “also recorded” stand apart in the source; their conditions may differ.

Experiments:
[1] = test system: CMT transgenic rat model (PMP22 transgenic rats); test: Bar test in CMT transgenic rats; type: in vivo; conditions: for time of treatment at which bar test effect becomes statistically significant: force-feeding; for bar test performances: female CMT TG rats vs TG placebo, methimazole 0.35 mg/kg, pilocarpine 0.2 mg/kg as printed in b214
From the text: The inventors have tested compounds and combinations for therapeutic effect in CMT transgenic rat model, a hemizygous PMP22 transgenic rats bearing three additional copies of mouse PMP22 gene show signs of demyelination in peripheral and cranial nerves, (Sereda et al., 1996; Grandis et al., 2004). At the mRNA level, an average 1.6-fold overexpression of PMP22 in CMT rats correlates with the clinical phenotype. A putative threshold level of PMP22 overexpression at which the wild type gene turns into a disease gene represents an obvious “target” to reach by treatment aimed at reducing PMP22 gene expression.
The inventors have tested the compounds and combinations for therapeutic effect in a rat model. The experimental groups are formed with young rats of both genders separately. The rats are assigned to the groups following randomization schedule based on the body weight. In some experiments the randomization is based on the performances of the rats in the bar test. Both genders are represented by separate control littermates groups that are numerically equal or bigger than the treatment groups.
The rats are treated chronically with drugs—force fed or injected by Alzet osmotic subcutaneous pump (DURECT Corporation Cupertino, Calif.), depending on each drug bioavailability during 3 or 6 weeks.
Each three or four weeks the animals are subjected to a behavioural test. Each test is conducted by the same investigator in the same room and at the same time of the day; this homogeneity is maintained throughout entire experiment. All treatments and genotype determination are blinded for the investigator. “Bar test” and “Grip strength” has been mainly used to access the performance throughout study. The schedule of the bar test may change as the animal growth (in order to avoid the bias due to the learning, for example).
The bar test evaluates rats' ability to hold on a fix rod. […] The rat is placed on its four paws on the middle of the rod (diameter: 2.5 cm; length: 50 cm; 30 cm above the table). Trials are performed consecutively; the number (5 or 10) and the duration (30 or 60 sec) of trials in our experiments have been depending on batches of the animals. This variability in the testing has been introduced in order to determine the schedule appropriated to the best detection of the motor deficiency in the CMT rats in the course of the experiments.
Performance indices are recorded on each session: • The number of trials needed to hold for 60 sec or 30 sec on the rod. • The mean time spent on the bar (i.e. the fall latency) in each trial and the average on the session. In the experimental procedures the session ends after the rat has stayed two times for a cut-off time, i.e. 30 or 60 s, on the bar. A performance of the cut-off time (30 s or 60 s) is assigned to trials not completed. • The number of falls.

PMP22 mRNA = PMP22 mRNA level by RT-Q-PCR in RT4-D6P2T schwannoma cells; type: cell-based, rat; conditions: 8 hrs, Methimazole 0.1 nm, Pilocarpine 0.001 nm, alone or combined
Protocol: Rat schwannoma RT4-D6-P2T cell line (ATCC #CRL2468™) is defrosted in DMEM (ATCC #30-2002) and 10% FCS (invitrogen #10106). The cells are maintained at 37° C. in a humidified incubator, in an atmosphere of air (95%.)—CO2 (5%). At passage n°4, cells are dissociated by trypsinization (+1 ml of Trypsin-EDTA, 0.25%-0.53 mM; Invitrogen) 5 to 15 min at 37° C. The reaction is stopped by addition of DMEM containing 10% of foetal bovine serum (FBS). […] are counted in a Neubauer cytometer using the trypan blue exclusion test (Sigma). The suspension is triturated with a 10 ml pipette and the cells are then centrifuged at 350×g for 10 min at room temperature. […]
Quantitative RT-PCR is used to compare the levels of PMP22 mRNA after drug stimulation, relative with housekeeping RPS9 mRNA in RT4-D6P2T cell line.
8 hrs after drug incubation, cells are rinsed with cold sterilized PBS, total RNAs from each cell sample are extracted and purified from SC using the Qiagen RNeasy micro kit (Qiagen #74004). Nucleic acids are quantified by Nanodrop spectrophotometer using 1 μl of RNA sample. The RNA integrity is determined through a BioAnalyzer (Agilent) apparatus. […]
In another experiment drugs (listed in Table 1) are incubated with rat schwannoma cell line during 8 hrs and PMP22 mRNA expression level was quantified by RT-Q-PCR.

[2] = test system: CMT transgenic rat model (PMP22 transgenic rats); test: Post-mortem weighing of sciatic nerves and soleus muscles in CMT rats; type: in vivo; conditions: CMT female rats treated 20 weeks
From the text: FIG. 5: The analysis of the post-mortem samples obtained from the animals treated with drugs as described in the legend to FIG. 3. The rats treated with drugs and placebo during 20 weeks, were deeply anesthetized and the entire sciatic nerves and soleus muscles were carefully sampled and weighted. The graphs present the 30 mean values of these measurements.
Sciatic nerves are excised and used for weighting as well as for molecular biology and/or biochemical essays. (RT-Q-PCR for PMP22 mRNA and Western blots for myelin proteins quantifications; Cayman's EIA kits—for biochemical markers such as arachidonic acid metabolites, HPLC quantification for steroids and amines, ELISA for CNTF, IL-6 etc.) performed according to generally used protocols and for analytical procedures (drug concentrations measures).
The hind limbs muscles (soleus) are sampled, weighted, snap-frozen and preserved at −80° C. until analysis (the same as for sciatic nerves).

Cn1cc[nH]c1=S [methimazole, 1-methyl-3H-imidazole-2-thione]
time of treatment at which bar test effect becomes statistically significant ([1]; CMT TG rats): 8 weeks
bar test performances ([1]; daily forced feeding): significantly more performing
bar test performances ([1]; daily forced feeding, listed as Methimazole): improve bar test performances
PMP22 mRNA level of expression (PMP22 mRNA): no significant activity
mass of sciatic nerves and soleus muscles [2]: completely corrected

CC[C@@H]1C(=O)OC[C@@H]1Cc1cncn1C [pilocarpine, (3S,4R)-3-ethyl-4-[(3-methylimidazol-4-yl)methyl]oxolan-2-one]
bar test performance compared with WT placebo group ([1]; CMT TG rats, daily forced feeding): no more significantly differs from that of the WT placebo group
time of treatment at which bar test effect becomes statistically significant ([1]; CMT TG rats): 8 weeks
bar test performances ([1]; daily forced feeding): improve bar test performances; also recorded: significantly more performing
PMP22 mRNA level of expression (PMP22 mRNA): no significant activity
mass of sciatic nerves and soleus muscles [2]: smaller than that of methimazole
